Literature values as cited in US20260355131A1, “SPRAY-DRIED COMPOSITIONS COMPRISING ADRENERGIC RECEPTOR MODULATORS” (OREXO AB, priority 2023, published 2026).

Experiments:
[1] = in solution
[2] = free acid/base compound

## CNC[C@H](O)c1ccc(O)c(O)c1 [epinephrine]
[1]
  pH below which epinephrine is stable: below 4
[1]; Connors et al
  optimum pH balancing racemization and oxidation: 3.0-3.8
[2]
  aqueous solubility: more limited aqueous solubility
